Like-named read-outs stand apart in the source and are kept apart here.
Key:
[1] = biological target: GSK3α (GST-full length GSK3α) (Homo sapiens (Human), UniProt P49840); test: GSK3α TR-FRET kinase assay; assay type: biochemical
Outline: (§1)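 Compound preincubated 30 min, then 1 nM GST-full-length GSK3α or GSK3b run 100 min at ambient temperature with 200 nM biotinylated, S645-prephosphorylated glycogen synthase 631-650 peptide in Tris pH 7.5, MgCl2, DTT, BSA, 1% DMSO. ATP 4 μM (α) or 2 μM (β), or 1 mM. EDTA-quenched; Tb-anti-pSer641/streptavidin-d2 TR-FRET 665/615 ratio gave IC50.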

[2] = biological target: GSK3b (GST-full length GSK3b) (Homo sapiens (Human), UniProt P49841); test: GSK3b TR-FRET kinase assay; assay type: biochemical
Sequence of GSK3b (GST-full length GSK3b) (P49841 whole entry): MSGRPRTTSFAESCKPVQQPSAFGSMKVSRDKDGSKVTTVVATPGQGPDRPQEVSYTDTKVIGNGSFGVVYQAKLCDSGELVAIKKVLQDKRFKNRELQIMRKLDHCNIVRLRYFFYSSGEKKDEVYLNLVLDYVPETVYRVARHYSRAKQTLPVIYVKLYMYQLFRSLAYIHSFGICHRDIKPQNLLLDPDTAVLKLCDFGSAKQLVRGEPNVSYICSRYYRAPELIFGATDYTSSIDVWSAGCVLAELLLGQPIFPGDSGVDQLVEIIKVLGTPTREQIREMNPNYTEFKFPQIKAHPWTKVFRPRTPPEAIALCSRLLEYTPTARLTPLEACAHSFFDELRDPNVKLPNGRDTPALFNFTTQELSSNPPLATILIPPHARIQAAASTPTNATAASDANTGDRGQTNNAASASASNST
Outline: as §1

[3] = 1 nM GSK3α, 4 μM ATP, 30 minute preincubation, Table 16, read-out: GSK3-A TR-FRET BIOCHEMICAL (TR-FRET), IC50
[4] = 1 nM GSK3b, 2 μM ATP, 30 minute preincubation, Table 16, read-out: GSK3-B TR-FRET BIOCHEMICAL (TR-FRET), IC50
[5] = 1 nM GSK3α, 4 μM ATP, 30 minute preincubation, Table 16, read-out: GSK3-A TR-FRET BIOCHEMICAL (TR-FRET)
[6] = 1 nM GSK3b, 2 μM ATP, 30 minute preincubation, Table 16, read-out: GSK3-B TR-FRET BIOCHEMICAL (TR-FRET)
[7] = GSK3-A (TR-FRET 1 mM ATP), GMean, IC50, 1 mM ATP, geometric mean
[8] = GSK3-B (TR-FRET 1 mM ATP), GMean, IC50, 1 mM ATP, geometric mean

Sequence of GSK3α (GST-full length GSK3α) (P49840 whole entry): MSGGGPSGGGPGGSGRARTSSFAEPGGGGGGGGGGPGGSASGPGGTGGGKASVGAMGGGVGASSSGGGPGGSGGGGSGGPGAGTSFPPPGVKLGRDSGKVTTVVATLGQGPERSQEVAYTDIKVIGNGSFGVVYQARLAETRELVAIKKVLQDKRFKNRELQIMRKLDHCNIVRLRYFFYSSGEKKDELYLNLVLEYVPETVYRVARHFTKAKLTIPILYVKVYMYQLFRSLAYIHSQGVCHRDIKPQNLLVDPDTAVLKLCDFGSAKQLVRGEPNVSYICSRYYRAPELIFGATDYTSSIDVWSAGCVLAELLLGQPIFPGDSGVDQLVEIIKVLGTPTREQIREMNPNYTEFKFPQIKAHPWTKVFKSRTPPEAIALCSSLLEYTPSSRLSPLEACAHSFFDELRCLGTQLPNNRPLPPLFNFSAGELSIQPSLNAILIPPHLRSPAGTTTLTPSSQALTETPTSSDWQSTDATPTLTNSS

IC50 [1, 3]	IC50 [2, 4]	IC50 [1, 5]	IC50 [2, 6]	SMILES	other results
100 to 1000 nM	1000 to 5000 nM			CC[C@]1(C)C2=C(CC(C)(C)CC2=O)Nc2n[nH]cc21 [Compound 884019]	
> 5000 nM	> 5000 nM			CC[C@]1(C)C2=C(CC(C)(C)CC2=O)Nc2n[nH]cc21 [Compound 884020]	
		100 to 1000 nM	100 to 1000 nM	CC1(C)CC(=O)C2=C(C1)Nc1n[nH]cc1[C@]21CCO[C@@H](C(F)(F)F)C1 [Compound 884021]	
		100 to 1000 nM	100 to 1000 nM	CC1(C)CC(=O)C2=C(C1)Nc1n[nH]cc1[C@@]21CCO[C@H](C(F)(F)F)C1 [Compound 884022]	
1000 to 5000 nM	> 5000 nM			CC1(C)CC(=O)C2=C(C1)Nc1n[nH]cc1[C@]21CCO[C@H](C(F)(F)F)C1 [Compound 884023]	
1000 to 5000 nM	> 5000 nM			CC1(C)CC(=O)C2=C(C1)Nc1n[nH]cc1[C@@]21CCO[C@@H](C(F)(F)F)C1 [Compound 884024]	
		≤ 100 nM	100 to 1000 nM	CC1(C)CCC2(CC1)C1=C(CC(C)(C)CC1=O)Nc1n[nH]cc12 [Compound 884107]	
≤ 100 nM	≤ 100 nM			CCN(C(C)=O)c1cccc(C2(CC)C3=C(CC(C)(C)CC3=O)Nc3n[nH]cc32)c1 (stereo not shown) [Compound 884109]	
≤ 100 nM	≤ 100 nM			CCC1(c2cccc(N(Cc3ccccc3)C(C)=O)c2)C2=C(CC(C)(C)CC2=O)Nc2n[nH]cc21 (stereo not shown) [Compound 884110]	
1000 to 5000 nM	> 5000 nM			O=C1CCCC2=C1C1(CCOCC1)c1c[nH]nc1N2 [Compound 884111]	
100 to 1000 nM	100 to 1000 nM			CC1CC(=O)C2=C(C1)Nc1n[nH]cc1C21CCOCC1 (stereo not shown) [Compound 884112]	
		100 to 1000 nM	1000 to 5000 nM	C[C@@H]1C[C@H](C)C[C@@]2(C1)C1=C(CC(C)(C)CC1=O)Nc1n[nH]cc12 [Compound 884113]	
		100 to 1000 nM	100 to 1000 nM	C[C@@H]1C[C@H](C)C[C@]2(C1)C1=C(CC(C)(C)CC1=O)Nc1n[nH]cc12 [Compound 884114]	
100 to 1000 nM	100 to 1000 nM			CCC1(c2cccc(N3CCCCC3)c2)C2=C(CC(C)(C)CC2=O)Nc2n[nH]c(C)c21 (stereo not shown) [Compound 884115]	
		≤ 100 nM	100 to 1000 nM	CO[C@H]1CC[C@]2(CC1)C1=C(CC(C)(C)CC1=O)Nc1n[nH]cc12 [Compound 884119]	
		100 to 1000 nM	100 to 1000 nM	CO[C@H]1CC[C@@]2(CC1)C1=C(CC(C)(C)CC1=O)Nc1n[nH]cc12 [Compound 884120]	
100 to 1000 nM	100 to 1000 nM			CCC1(c2cccc(N3CCCCCC3)c2)C2=C(CC(C)(C)CC2=O)Nc2n[nH]cc21 (stereo not shown) [Compound 885088]	
≤ 100 nM	100 to 1000 nM			CCC1(c2cccc(N3CCCC3C)c2)C2=C(CC(C)(C)CC2=O)Nc2n[nH]cc21 (stereo not shown) [Compound 885204]	
≤ 100 nM	≤ 100 nM			CCN(c1cccnc1)c1cccc(C2(CC)C3=C(CC(C)(C)CC3=O)Nc3n[nH]cc32)c1 (stereo not shown) [Compound 885331]	
≤ 100 nM	≤ 100 nM			CCC1(c2cccc(N(c3cccnc3)C(C)C)c2)C2=C(CC(C)(C)CC2=O)Nc2n[nH]cc21 (stereo not shown) [Compound 885344]	
100 to 1000 nM	1000 to 5000 nM			CCN(c1cccc(C2(CC)C3=C(CC(C)(C)CC3=O)Nc3n[nH]cc32)c1)c1cccnc1C (stereo not shown) [Compound 885367]	
100 to 1000 nM	1000 to 5000 nM			CCC1(c2cccc(N(C)c3cnn(C)c3)c2)C2=C(CC(C)(C)CC2=O)Nc2n[nH]cc21 (stereo not shown) [Compound 885382]	
≤ 100 nM	100 to 1000 nM			CC[C@]1(c2cccc([C@H]3CCOC3)c2)C2=C(CC(C)(C)CC2=O)Nc2n[nH]cc21 [Compound 889558]	
100 to 1000 nM	1000 to 5000 nM			CCC1(c2cccc(C3CCOC3)c2)C2=C(CC(C)(C)CC2=O)Nc2n[nH]cc21 (stereo not shown) [Compound 889565]	
		≤ 100 nM	100 to 1000 nM	CC1(C)CC(=O)C2=C(C1)Nc1n[nH]cc1C21CSC1 [Compound 889567]	
		100 to 1000 nM	1000 to 5000 nM	CC1(C)CC(=O)C2=C(C1)Nc1n[nH]cc1C21CN(C(=O)OCc2ccccc2)C1 [Compound 889568]	
		100 to 1000 nM	100 to 1000 nM	CC1(C)CC(=O)C2=C(C1)Nc1n[nH]cc1C21COC1 [Compound 889569]	
> 5000 nM	> 5000 nM			CC1(C)CC(=O)C2=C(C1)Nc1n[nH]cc1C2(CO)CO [Compound 889570]	

IC50 [1, 3]	IC50 [2, 4]	IC50 [1, 5]	IC50 [2, 6]	SMILES	other results
> 5000 nM	> 5000 nM			CC1(C)CC(=O)C2=C(C1)Nc1n[nH]cc1C21CCCNCC1 (stereo not shown) [Compound 889571]	
100 to 1000 nM	100 to 1000 nM			O=C1CC(C(F)(F)F)CC2=C1C1(CCOCC1)c1c[nH]nc1N2 (stereo not shown) [Compound 889572]	
≤ 100 nM	100 to 1000 nM			O=C1CC2(CCOC2)CC2=C1C1(CCOCC1)c1c[nH]nc1N2 (stereo not shown) [Compound 889573]	
		100 to 1000 nM	100 to 1000 nM	CC1(C)CC(=O)C2=C(C1)Nc1n[nH]cc1C21CCCN(CC(F)F)CC1 (stereo not shown) [Compound 889574]	
100 to 1000 nM	1000 to 5000 nM			CC(=O)N1CCCC2(CC1)C1=C(CC(C)(C)CC1=O)Nc1n[nH]cc12 (stereo not shown) [Compound 889575]	
		100 to 1000 nM	100 to 1000 nM	CC1(C)CC(=O)C2=C(C1)Nc1n[nH]cc1C21CCCN(CC(F)(F)F)CC1 (stereo not shown) [Compound 889576]	
1000 to 5000 nM	1000 to 5000 nM			CC1(C)CC(=O)C2=C(C1)Nc1n[nH]cc1C21CCCN(C(=O)c2ccccc2)CC1 (stereo not shown) [Compound 889577]	
		≤ 100 nM	≤ 100 nM	CC1(C)CC(=O)C2=C(C1)Nc1n[nH]cc1C21CCCN(S(=O)(=O)c2ccccc2)CC1 (stereo not shown) [Compound 889578]	
≤ 100 nM	≤ 100 nM			CCC1(c2cccc(S(=O)(=O)CC)c2)C2=C(CC(C)(C)CC2=O)Nc2n[nH]cc21 (stereo not shown) [Compound 889579]	
100 to 1000 nM	1000 to 5000 nM			CCC1(c2cccc(N3CCOCC3)c2)C2=C(CC(C)(C)CC2=O)Nc2n[nH]c(C)c21 (stereo not shown) [Compound 889582]	
1000 to 5000 nM	> 5000 nM			CC(=O)N1CC[C@@]2(C1)C1=C(CC(C)(C)CC1=O)Nc1n[nH]cc12 [Compound 889583]	
100 to 1000 nM	1000 to 5000 nM			CC(=O)N1CC[C@]2(C1)C1=C(CC(C)(C)CC1=O)Nc1n[nH]cc12 [Compound 889584]	
100 to 1000 nM	100 to 1000 nM			CCC1(c2cccc(N3CCC3)c2)C2=C(CC(C)(C)CC2=O)Nc2n[nH]cc21 (stereo not shown) [Compound 889631]	
> 5000 nM	> 5000 nM			CC[C@]1(c2cccc(N3CCC3)c2)C2=C(CC(C)(C)CC2=O)Nc2n[nH]cc21 [Compound 889632]	
≤ 100 nM	≤ 100 nM			CCC1(c2cccc(N3CCCc4ncccc43)c2)C2=C(CC(C)(C)CC2=O)Nc2n[nH]cc21 (stereo not shown) [Compound 889639]	IC50 ([1]; read-out: GSK3-A (TR-FRET 1 mM ATP), GMean, IC50, 1 mM ATP, geometric mean): ≤ 100 nM; IC50 ([2]; read-out: GSK3-B (TR-FRET 1 mM ATP), GMean, IC50, 1 mM ATP, geometric mean): 100 to 1000 nM
		≤ 100 nM	100 to 1000 nM	CC1(C)CC(=O)C2=C(C1)Nc1n[nH]cc1[C@]21C[C@H](c2ccncc2)C1 [Compound 889664]	
		≤ 100 nM	≤ 100 nM	CC1(C)CC(=O)C2=C(C1)Nc1n[nH]cc1[C@]21C[C@@H](c2ccncc2)C1 [Compound 889665]	IC50 [1, 7]: ≤ 100 nM; IC50 [2, 8]: 100 to 1000 nM
≤ 100 nM	≤ 100 nM			CCC1(c2cccc(N(C(C)=O)C(C)C)c2)C2=C(CC(C)(C)CC2=O)Nc2n[nH]cc21 (stereo not shown) [Compound 893305]	
≤ 100 nM	≤ 100 nM			CCC1(c2cccc(N(CCOC)C(C)=O)c2)C2=C(CC(C)(C)CC2=O)Nc2n[nH]cc21 (stereo not shown) [Compound 893306]	
		≤ 100 nM	100 to 1000 nM	O=C1CC2(CCCCC2)CC2=C1C1(CCOCC1)c1c[nH]nc1N2 [Compound 893307]	
		≤ 100 nM	100 to 1000 nM	O=C1CC2(CCCC2)CC2=C1C1(CCOCC1)c1c[nH]nc1N2 [Compound 893308]	
100 to 1000 nM	1000 to 5000 nM			O=C1CC(c2ccccc2)CC2=C1C1(CCOCC1)c1c[nH]nc1N2 (stereo not shown) [Compound 893309]	
		≤ 100 nM	≤ 100 nM	COc1ccccc1S(=O)(=O)N1CCC2(CC1)C1=C(CC(C)(C)CC1=O)Nc1n[nH]cc12 [Compound 893310]	IC50 [1, 7]: ≤ 100 nM; IC50 [2, 8]: 100 to 1000 nM
		≤ 100 nM	≤ 100 nM	CC1(C)CC(=O)C2=C(C1)Nc1n[nH]cc1C21CCN(S(=O)(=O)c2ccc(F)cc2)CC1 [Compound 893311]	IC50 [1, 7]: 100 to 1000 nM; IC50 [2, 8]: 1000 to 5000 nM
				CC1(C)CC(=O)C2=C(C1)Nc1n[nH]cc1C21CCC2(CC2)CC1 [Compound 893312]	IC50 ([1]; 1 nM GSK3α, 4 μM ATP, 30 minute preincubation, read-out: GSK3-A TR-FRET BIOCHEMICAL (TR-FRET), IC50): ≤ 100 nM; IC50 ([2]; 1 nM GSK3b, 2 μM ATP, 30 minute preincubation, read-out: GSK3-B TR-FRET BIOCHEMICAL (TR-FRET), IC50): ≤ 100 nM
> 5000 nM	> 5000 nM			CN1CCCC2(CC1)C1=C(CC(C)(C)CC1=O)Nc1n[nH]cc12 (stereo not shown) [Compound 893313]	
1000 to 5000 nM	> 5000 nM			CC(=O)N1CC2(C1)C1=C(CC(C)(C)CC1=O)Nc1n[nH]cc12 [Compound 893314]	
